In US11034650B2, “Compounds useful for treating a Mannheimia haemolytica or Histophilus somni infection” (Intervet Inc., priority 2016, dated 2021):
≈ marks a conversion by molar mass, not a printed value.

How the values were obtained:
Type in all cases: cell-based
[1] = tested on: Mannheimia haemolytica MH 12587 (1071, BRD field isolate, macrolide-resistance: erm+, E+); assay: MIC, broth-microdilution (CLSI VET01-A4), strain MH 12587; conditions: Mannheimia haemolytica strain MH 12587, broth-microdilution; unit assumed
In short: (§1)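 Read-out is unaided visual inspection for turbidity. The minimum inhibitory concentration is the lowest tested level without detectable growth across a two-fold compound series.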

[2] = tested on: Mannheimia haemolytica MH 6357 (M7/2, reference strain, cattle infection strain); assay: MIC, broth-microdilution (CLSI VET01-A4), strain MH 6357; conditions: Mannheimia haemolytica strain MH 6357, broth-microdilution; unit assumed
In short: as §1

[3] = tested on: Mannheimia haemolytica MH 13093 (XB0472-6014.1, BRD field isolate); assay: MIC, broth-microdilution (CLSI VET01-A4), strain MH 13093; conditions: Mannheimia haemolytica strain MH 13093, broth-microdilution; unit assumed
In short: as §1

[4] = tested on: Mannheimia haemolytica MH 13065 (XB0446-6003.9, BRD field isolate); assay: MIC, broth-microdilution (CLSI VET01-A4), strain MH 13065; conditions: Mannheimia haemolytica strain MH 13065, broth-microdilution; unit assumed
In short: as §1

[5] = tested on: Pasteurella multocida PM 6267 (P 2225 (L386), reference strain, mouse infection strain); assay: MIC, broth-microdilution (CLSI VET01-A4), strain PM 6267; conditions: Pasteurella multocida strain PM 6267, broth-microdilution; unit assumed
In short: as §1

[6] = tested on: Mannheimia haemolytica MH 6374 (ATCC 33396, reference strain); assay: MIC, broth-microdilution (CLSI VET01-A4), strain MH 6374; conditions: Mannheimia haemolytica strain MH 6374, broth-microdilution; unit assumed
In short: as §1

[7] = tested on: Pasteurella multocida PM 6391 (ATCC 43137, reference strain); assay: MIC, broth-microdilution (CLSI VET01-A4), strain PM 6391; conditions: Pasteurella multocida strain PM 6391, broth-microdilution; unit assumed
In short: as §1

[8] = tested on: Pasteurella multocida PM 12080 (IV102277-0093, BRD field isolate); assay: MIC, broth-microdilution (CLSI VET01-A4), strain PM 12080; conditions: Pasteurella multocida strain PM 12080, broth-microdilution; unit assumed
In short: as §1

[9] = tested on: Pasteurella multocida PM 10775 (080130003051, BRD field isolate); assay: MIC, broth-microdilution (CLSI VET01-A4), strain PM 10775; conditions: Pasteurella multocida strain PM 10775, broth-microdilution; unit assumed
In short: as §1

[10] = tested on: Mannheimia haemolytica MH 10720 (154, BRD field isolate); assay: MIC, broth-microdilution (CLSI VET01-A4), strain MH 10720; conditions: Mannheimia haemolytica strain MH 10720, broth-microdilution; unit assumed
In short: as §1

SMILES | MIC MH 12587 [1] [µg/mL] | MIC MH 6357 [2] [µg/mL] | MIC MH 13093 [3] [µg/mL] | MIC MH 13065 [4] [µg/mL] | MIC PM 6267 [5] [µg/mL] | MIC MH 6374 [6] [µg/mL] | MIC PM 6391 [7] [µg/mL] | MIC PM 12080 [8] [µg/mL] | MIC PM 10775 [9] [µg/mL] | MIC MH 10720 [10] [µg/mL]
CC(=O)C(NC(=O)c1ccc(C#Cc2ccc(CN3CCCC3)cc2)cc1)C(=O)NO (stereo not drawn) [Compound 403] | 6.3 (≈ 15 µM) | 25 (≈ 59.6 µM) | 25 (≈ 59.6 µM) | 25 (≈ 59.6 µM) | 100 (≈ 238 µM) | 12.5 (≈ 29.8 µM) | 0.8 (≈ 1.91 µM) | 3.1 (≈ 7.39 µM) | 6.3 (≈ 15 µM) | 12.5 (≈ 29.8 µM)
CC(=O)C(NC(=O)c1ccc(C#Cc2ccc(CNC3CCC3)cc2)cc1)C(=O)NO (stereo not drawn) [Compound 404] | 3.1 (≈ 7.39 µM) | 12.5 (≈ 29.8 µM) | 50 (≈ 119 µM) | 25 (≈ 59.6 µM) | 25 (≈ 59.6 µM) | 12.5 (≈ 29.8 µM) | 0.4 (≈ 0.954 µM) | 1.6 (≈ 3.81 µM) | 3.1 (≈ 7.39 µM) | 6.3 (≈ 15 µM)
CC(=O)C(NC(=O)c1ccc(C#Cc2ccc(CNC3CCCC3)cc2)cc1)C(=O)NO (stereo not drawn) [Compound 405] | 12.5 (≈ 28.8 µM) | 25 (≈ 57.7 µM) | 25 (≈ 57.7 µM) | 0.8 (≈ 1.85 µM) | 100 (≈ 231 µM) | 50 (≈ 115 µM) | 0.8 (≈ 1.85 µM) | 0.8 (≈ 1.85 µM) | 3.1 (≈ 7.15 µM) | 6.3 (≈ 14.5 µM)
CCCNCc1ccc(C#Cc2ccc(C(=O)N[C@@H](C(C)=O)C(=O)NO)cc2)cc1 [Compound 406] | 1.6 (≈ 3.93 µM) | 12.5 (≈ 30.7 µM) | 12.5 (≈ 30.7 µM) | 25 (≈ 61.4 µM) | 25 (≈ 61.4 µM) | 25 (≈ 61.4 µM) | 0.2 (≈ 0.491 µM) | 3.1 (≈ 7.61 µM) | 3.1 (≈ 7.61 µM) | 6.3 (≈ 15.5 µM)
CC(=O)C(NC(=O)c1ccc(C#Cc2ccc(CNCc3cccnc3)cc2)cc1)C(=O)NO (stereo not drawn) [Compound 407] | 1.6 (≈ 3.5 µM) | 3.1 (≈ 6.79 µM) | 6.3 (≈ 13.8 µM) | 6.3 (≈ 13.8 µM) | 25 (≈ 54.8 µM) | 6.3 (≈ 13.8 µM) | 0.2 (≈ 0.438 µM) | 0.8 (≈ 1.75 µM) | 1.6 (≈ 3.5 µM) | 6.3 (≈ 13.8 µM)
CC(=O)C(NC(=O)c1ccc(C#Cc2ccc(CNCc3ccnc(Cl)c3)cc2)cc1)C(=O)NO (stereo not drawn) [Compound 408] | 0.4 (≈ 0.815 µM) | 1.6 (≈ 3.26 µM) | 1.6 (≈ 3.26 µM) | 1.6 (≈ 3.26 µM) | 6.3 (≈ 12.8 µM) | 1.6 (≈ 3.26 µM) | ≤ 0.1 | 0.4 (≈ 0.815 µM) | 0.8 (≈ 1.63 µM) | 1.6 (≈ 3.26 µM)
CC(=O)C(NC(=O)c1ccc(C#Cc2ccc(CNCc3ccco3)cc2)cc1)C(=O)NO (stereo not drawn) [Compound 410] | 0.4 (≈ 0.898 µM) | 0.8 (≈ 1.8 µM) | 1.6 (≈ 3.59 µM) | 1.6 (≈ 3.59 µM) | 6.3 (≈ 14.1 µM) | 1.6 (≈ 3.59 µM) | ≤ 0.1 | 0.4 (≈ 0.898 µM) | 0.8 (≈ 1.8 µM) | 1.6 (≈ 3.59 µM)
CC(=O)C(NC(=O)c1ccc(C#Cc2ccc(CNCc3cccs3)cc2)cc1)C(=O)NO (stereo not drawn) [Compound 411] | 0.2 (≈ 0.433 µM) | 0.4 (≈ 0.867 µM) | 0.8 (≈ 1.73 µM) | 0.8 (≈ 1.73 µM) | 3.1 (≈ 6.72 µM) | 0.8 (≈ 1.73 µM) | ≤ 0.1 | 0.2 (≈ 0.433 µM) | 0.4 (≈ 0.867 µM) | 0.8 (≈ 1.73 µM)
CC(=O)[C@H](NC(=O)c1ccc(C#Cc2ccc(CNCc3ccc(C)cc3)cc2)cc1)C(=O)NO [Compound 412] | 0.4 (≈ 0.852 µM) | 1.6 (≈ 3.41 µM) | 1.6 (≈ 3.41 µM) | 1.6 (≈ 3.41 µM) | 6.3 (≈ 13.4 µM) | 1.6 (≈ 3.41 µM) | ≤ 0.1 | 0.2 (≈ 0.426 µM) | 0.4 (≈ 0.852 µM) | 1.6 (≈ 3.41 µM)
CC(=O)C(NC(=O)c1ccc(C#Cc2ccc(CNCC3CCCO3)cc2)cc1)C(=O)NO (stereo not drawn) [Compound 413] | 6.3 (≈ 14 µM) | 12.5 (≈ 27.8 µM) | 25 (≈ 55.6 µM) | 6.3 (≈ 14 µM) | 50 (≈ 111 µM) | 12.5 (≈ 27.8 µM) | 0.2 (≈ 0.445 µM) | 0.4 (≈ 0.89 µM) | 0.4 (≈ 0.89 µM) | 3.1 (≈ 6.9 µM)
CC(=O)C(NC(=O)c1ccc(C#Cc2ccc(CNCc3nccs3)cc2)cc1)C(=O)NO (stereo not drawn) [Compound 414] | 0.4 (≈ 0.865 µM) | 0.8 (≈ 1.73 µM) | 1.6 (≈ 3.46 µM) | 0.8 (≈ 1.73 µM) | 6.3 (≈ 13.6 µM) | 1.6 (≈ 3.46 µM) | ≤ 0.1 | ≤ 0.1 | 0.4 (≈ 0.865 µM) | 0.8 (≈ 1.73 µM)
CON=C(C)C(NC(=O)c1ccc(C#Cc2ccc(CNCc3ccncc3)cc2)cc1)C(=O)NO (stereo not drawn) [Compound 415] | 0.2 (≈ 0.412 µM) | 0.4 (≈ 0.824 µM) | 0.4 (≈ 0.824 µM) | 0.4 (≈ 0.824 µM) | 1.6 (≈ 3.3 µM) | 0.8 (≈ 1.65 µM) | ≤ 0.1 | ≤ 0.1 | ≤ 0.1 | 0.4 (≈ 0.824 µM)
